# Test results: patent US10144746B2 (GLOBAL BLOOD THERAPEUTICS, INC., priority 2015, dated 2018)
# Counter-ions that a name gives are not always drawn.
# Target: Human plasma kallikrein (Homo sapiens (Human), UniProt P03952)
# Assay: In vitro plasma kallikrein inhibition assay (chromogenic substrate D-Pro-Phe-Arg-pNa, absorbance at 405 nm, IC50 determination)
# Type: biochemical
# Details: not given
# Human plasma kallikrein, sequence (P03952 391-638): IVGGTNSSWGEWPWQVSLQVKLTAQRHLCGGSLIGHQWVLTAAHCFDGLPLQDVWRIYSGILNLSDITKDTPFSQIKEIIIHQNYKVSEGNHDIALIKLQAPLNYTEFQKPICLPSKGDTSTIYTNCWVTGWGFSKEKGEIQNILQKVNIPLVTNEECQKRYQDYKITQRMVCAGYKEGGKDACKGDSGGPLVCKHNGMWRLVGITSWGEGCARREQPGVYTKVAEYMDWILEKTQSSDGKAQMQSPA
# Human plasma kallikrein, sequence (P03952 20-390 partner): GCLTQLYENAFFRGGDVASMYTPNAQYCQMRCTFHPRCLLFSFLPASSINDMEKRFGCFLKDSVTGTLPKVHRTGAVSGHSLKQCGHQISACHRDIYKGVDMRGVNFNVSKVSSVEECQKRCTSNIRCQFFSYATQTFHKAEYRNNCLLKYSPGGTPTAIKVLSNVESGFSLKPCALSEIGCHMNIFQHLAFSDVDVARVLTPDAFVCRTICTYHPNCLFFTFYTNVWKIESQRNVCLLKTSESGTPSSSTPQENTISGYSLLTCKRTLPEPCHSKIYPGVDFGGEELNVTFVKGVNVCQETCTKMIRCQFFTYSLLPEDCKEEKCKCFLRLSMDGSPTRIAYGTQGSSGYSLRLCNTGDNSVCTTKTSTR
row,Molecule,KLKB1 pIC50
1,COc1cc(N)nc(C)c1CNC(=O)c1ccc2c(c1)C1OC2c2ccc(-c3ccc(F)cc3F)cc21 (centres unmarked) [Example 80],7.57
2,"COc1cc(N)nc(C)c1CNC(=O)c1ccc2c(c1)C1OC2c2ccc(-c3ccc(Cl)c(F)c3F)cc21 (centres unmarked) [Example 109, trifluoroacetate salt]",7.59
3,"NC(=NO)c1ccc(CNC(=O)c2ccc3c(c2)[C@@H]2O[C@H]3c3ccc(-c4ccc(F)cc4F)cc32)cc1 [Example 203, (1R,8S)-12-(2,4-difluorophenyl)-N-{[4-(N′-hydroxycarbamimidoyl)phenyl]methyl}-15-oxatetracyclo[6.6.1.0^2,^7.0^9,1^4] pentadeca-2,4,6,9,11,13-hexaene-4-carboxamide]",5.98
4,"NC(=NO)c1ccc(CNC(=O)c2ccc3c(c2)[C@@H]2O[C@H]3c3ccc(-c4ccccc4F)cc32)cc1 [Example 204, (1R,8S)-12-(2-fluorophenyl)-N-{[4-(N′-hydroxycarbamimidoyl)phenyl]methyl}-15-oxatetracyclo[6.6.1.0^2,^7.0^9,1^4] pentadeca-2,4,6,9,11,13-hexaene-4-carboxamide]",6.03
5,CON=C(N)c1ccc(CNC(=O)c2ccc3c(c2)[C@@H]2O[C@H]3c3ccc(-c4ccc(F)cc4F)cc32)cc1 [Example 225],5
6,"CON=C(N)c1ccc(CNC(=O)c2ccc3c(c2)[C@@H]2O[C@H]3c3ccc(-c4ccccc4F)cc32)cc1 [Example 240, (1R,8S)-12-(2-fluorophenyl)-N-{[4-(N′-methoxy-carbamimidoyl)phenyl]methyl}-15-oxatetracyclo-[6.6.1.0^2,^7.0^9,1^4]pentadeca-2,4,6,9,11,13-hexaene-4-carboxamide]",4
7,"CON=C(N)c1ccc(CNC(=O)c2ccc3c(c2)[C@@H]2O[C@H]3c3ccc(-c4ccc(F)cc4)cc32)cc1 [Example 241, (1R,8S)-12-(4-fluorophenyl)-N-{[4-(N′-methoxy-carbamimidoyl)pheny]methyl}-15-oxatetracyclo-[6.6.1.0^2,^7.0^9,1^4]pentadeca-2,4,6,9,11,13-hexaene-4-carboxamide]",4
8,"CON=C(N)c1ccc(CNC(=O)c2ccc3c(c2)[C@@H]2O[C@H]3c3ccc(-c4ccc(Cl)s4)cc32)cc1 [Example 251, (1S,8R)-12-(5-chlorothiophen-2-yl)-N-({4-[N′-methoxycarbamimidoyl]phenyl}methyl)-15-oxatetracyclo[6.6.1.0^2,^7.0^9,1^4] pentadeca-2,4,6,9,11,13-hexaene-4-carboxamide]",4
9,"CON=C(N)c1cc(F)c(CNC(=O)c2ccc3c(c2)[C@@H]2O[C@H]3c3ccc(-c4ccc(F)cc4F)cc32)c(F)c1 [Example 255, (1R,8S)-N-({2,6-difluoro-4-[N′-methoxy-carbamimidoyl]phenyl}methyl)-12-(2,4-difluorophenyl)-15-oxatetracyclo[6.6.1.0^2,^7.0^9,1^4]-pentadeca-2,4,6,9,11,13-hexaene-4-carboxamide]",6.18
10,"NC(=NO)c1cc(F)c(CNC(=O)c2ccc3c(c2)[C@@H]2O[C@H]3c3ccc(-c4ccc(F)cc4F)cc32)c(F)c1 [Example 266, (1R,8S)-N-({2,6-difluoro-4-[N′-hydroxy-carbamimidoyl]phenyl}methyl)-12-(2,4-difluorophenyl)-15-oxatetracyclo[6.6.1.0^2,^7.0^9,1^4]-pentadeca-2,4,6,9,11,13-hexaene-4-carboxamide]",6.99
11,"CON=C(N)c1ccc(CNC(=O)c2ccc3c(c2)[C@@H]2O[C@H]3c3ccc(C4CC4)cc32)cc1 [Example 272, (1R,8S)-12-cyclopropyl-N-({4-[N′-methoxy-carbamimidoyl]phenyl}methyl)-15-oxatetracyclo[6.6.1.0^2,^7.0^9,1^4] pentadeca-2,4,6,9,11,13-hexaene-4-carboxamide]",5.61
12,CON=C(N)c1cc(F)c(CNC(=O)c2ccc3c(c2)[C@@H]2O[C@H]3c3ccc(-c4nccs4)cc32)c(F)c1 [Example 274],5.86
13,"NC(=NO)c1ccc(CNC(=O)c2ccc3c(c2)[C@@H]2O[C@H]3c3ccc(-c4ccc(Cl)s4)cc32)cc1 [Example 276, (1S,8R)-12-(5-chlorothiophen-2-yl)-N-{[4-(N′-hydroxycarbamimidoyl)phenyl]methyl}-15-oxatetracyclo[6.6.1.0^2,^7.0^9,1^4] pentadeca-2,4,6,9,11,13-hexaene-4-carboxamide]",4
14,"(±)-N4-[(6-amino-2,4- dimethylpyridin-3-yl)methyl]- 11-cyano-15-oxatetracyclo- [6.6.1.0^2,^7.0^9,1^4]pentadeca- 2,4,6,9,11,13-hexaene-4,12- dicarboxamide and (±)-N4-[(6- amino-2,4-dimethylpyridin-3- yl)methyl]-12-cyano-15- oxatetracyclo[6.6.1.0^2,^7.0^9,1^4] pentadeca-2,4,6,9,11,13- hexaene-4,11-dicarboxamide [Example 333]",5.64

# Same assay, conditions: read-out: KLKB1 pIC50 (converted)
row,Molecule,IC50
1,"NC(=O)c1cccc(CNC(=O)c2ccc3c(c2)[C@@H]2O[C@H]3c3ccc(-c4ccc(F)cc4F)cc32)c1 (single isomer, unassigned) [Example 292]",100000 nM
2,"Nc1nccc2c(CNC(=O)c3ccc4c(c3)[C@@H]3O[C@H]4c4ccc(-c5ccccc5F)cc43)c(Cl)ccc12 (single isomer, unassigned) [Example 294]",20.9 nM
3,"Nc1nccc2cc(Cl)c(CNC(=O)c3ccc4c(c3)[C@@H]3O[C@H]4c4ccc(-c5ccccc5F)cc43)cc12 (single isomer, unassigned) [Example 295]",10000 nM
4,"N=C(N)c1cc(F)c(CNC(=O)c2ccc3c(c2)[C@@H]2O[C@H]3c3ccc(CCC(F)(F)F)cc32)c(F)c1 (single isomer, unassigned) [Example 296]",1 nM
5,"CC(C)c1ccc2c(c1)[C@H]1O[C@@H]2c2ccc(C(=O)NCc3c(F)cc(C(=N)N)cc3F)cc21 (single isomer, unassigned) [Example 298]",2 nM
6,"Cc1ccc2c(N)nccc2c1CNC(=O)c1ccc2c(c1)[C@@H]1O[C@H]2c2ccc(-c3ccccc3F)cc21 (single isomer, unassigned) [Example 299]",30.9 nM
7,"N=C(N)c1ccc(CNC(=O)c2ccc3c(c2)[C@@H]2O[C@H]3c3ccc(C4CC4)cc32)c(F)c1 (single isomer, unassigned) [Example 302]",1 nM
8,"N=C(N)c1ccc(CNC(=O)c2ccc3c(c2)[C@@H]2O[C@H]3c3ccc(-n4cccn4)cc32)cc1 (single isomer, unassigned) [Example 305]",8.91 nM
9,"Cc1cc(C(=N)N)ccc1CNC(=O)c1ccc2c(c1)[C@@H]1O[C@H]2c2ccc(-c3ccc(F)cc3F)cc21 (single isomer, unassigned) [Example 306]",1 nM
10,"N=C(N)c1ccc(CNC(=O)c2ccc3c(c2)[C@@H]2O[C@H]3c3ccc(N4CC(F)(F)C4)cc32)cc1 (single isomer, unassigned) [Example 307]",1 nM
11,"Cc1cc(C(=N)N)ccc1CNC(=O)c1ccc2c(c1)[C@@H]1O[C@H]2c2ccc(-n3cccn3)cc21 (single isomer, unassigned) [Example 312]",1 nM
12,"O=C(NCC1CNC1)c1ccc2c(c1)[C@@H]1O[C@H]2c2ccc(-c3ccc(F)cc3F)cc21 (single isomer, unassigned) [Example 323]",100000 nM
13,"O=C(N[C@@H]1CCNC1)c1ccc2c(c1)[C@@H]1O[C@H]2c2ccc(-c3ccc(F)cc3F)cc21 (single isomer, unassigned) [Example 324]",100000 nM
14,"O=C(N[C@H]1CCNC1)c1ccc2c(c1)[C@@H]1O[C@H]2c2ccc(-c3ccc(F)cc3F)cc21 (single isomer, unassigned) [Example 325]",42700 nM
15,"N=C(N)c1ccc(CNC(=O)c2ccc3c(c2)[C@@H]2O[C@H]3c3ccc(C4CC4)cc32)nc1 (single isomer, unassigned) [Example 327]",427 nM
16,"CC(C)c1ccc2c(c1)[C@H]1O[C@@H]2c2ccc(C(=O)NCc3ccc(C(=N)N)cc3)cc21 (single isomer, unassigned) [Example 328]",7.08 nM
17,"N=C(N)c1ccc(CNC(=O)c2ccc3c(c2)[C@@H]2O[C@H]3c3ccc(-c4ccc(F)cc4)cc32)c(F)c1 (single isomer, unassigned) [Example 329]",1 nM
18,"Cc1cc(C(=N)N)cc(C)c1CNC(=O)c1ccc2c(c1)[C@@H]1O[C@H]2c2ccc(C3CC3)cc21 (single isomer, unassigned) [Example 331]",1 nM
19,"N=C(N)c1ccc(CNC(=O)c2ccc3c(c2)[C@@H]2O[C@H]3c3ccc(-c4ccc(F)cc4F)cc32)nc1 (single isomer, unassigned) [Example 332]",63.1 nM
20,"N=C(N)c1cc(F)c(CNC(=O)c2ccc3c(c2)[C@@H]2O[C@H]3c3ccc(N4CCS(=O)(=O)CC4)cc32)c(F)c1 (single isomer, unassigned) [Example 336]",5.01 nM
21,"N=C(N)c1ccc(CNC(=O)c2ccc3c(c2)[C@@H]2O[C@H]3c3ccc(N4CCS(=O)(=O)CC4)cc32)cc1 (single isomer, unassigned) [Example 337]",26.9 nM
22,"COc1cc(CNC(=O)c2ccc3c(c2)[C@@H]2O[C@H]3c3ccc(-c4ccc(F)cc4F)cc32)ccc1C(=N)N (single isomer, unassigned) [Example 338]",5.89 nM
23,"O=C(NC1CCCNCC1)c1ccc2c(c1)[C@@H]1O[C@H]2c2ccc(-c3ccc(F)cc3F)cc21 (single isomer, unassigned) [Example 343]",100000 nM
24,"Nc1cc(NC(=O)c2ccc3c(c2)[C@@H]2O[C@H]3c3ccc(-c4ccc(F)cc4F)cc32)ccn1 (single isomer, unassigned) [Example 347]",100000 nM
25,"CCc1cc2c(cc1CC)[C@H]1O[C@@H]2c2ccc(C(=O)NCc3ccc(C(=N)N)cc3)cc21 (single isomer, unassigned) [Example 392]",1 nM
26,"N=C(N)c1ccc(CNC(=O)c2ccc3c(c2)[C@H]2O[C@@H]3c3cc(C4CC4)c(C4CC4)cc32)cc1 (single isomer, unassigned) [Example 399]",100 nM
27,"N=C(N)c1ccc(CNC(=O)c2ccc3c(c2)[C@@H]2O[C@H]3c3cc(C4CC4)c(C4CC4)cc32)cc1 (single isomer, unassigned) [Example 400]",1 nM
